Test results: ChEMBL document CHEMBL3763059, “Lanostane-type triterpenes from the fungal endophyte Scleroderma UFSMSc1 (Persoon) Fries” (2016)
In brackets after ≈: the same amount, converted by molar mass.

How the values were obtained:
Type in all cases: functional
Candida tropicalis = assay: Antifungal activity against Candida tropicalis ATCC 18803 after 48 hrs by micro dilution method; conditions: for MIC: Candida tropicalis, ATCC 18803, 48 h
Candida parapsilosis = assay: Antifungal activity against Candida parapsilosis ATCC 22018 after 48 hrs by micro dilution method; conditions: for MIC: Lodderomyces parapsilosis, ATCC 22018, 48 h
Pichia kudriavzevii = assay: Antifungal activity against Candida krusei ATCC 6258 after 48 hrs by micro dilution method; conditions: for MIC: Pichia kudriavzevii, ATCC 6258, 48 h
Candida albicans = assay: Antifungal activity against Candida albicans ATCC 10231 after 48 hrs by microdilution method; conditions: for MIC: Candida albicans, ATCC 10231, 48 h

MIC (Candida tropicalis) [µg/mL]	MIC (Candida parapsilosis) [µg/mL]	MIC (Pichia kudriavzevii) [µg/mL]	MIC (Candida albicans) [µg/mL]	SMILES	MLC (Candida tropicalis) [µg/mL]	MLC (Candida parapsilosis) [µg/mL]	MLC (Pichia kudriavzevii) [µg/mL]	MLC (Candida albicans) [µg/mL]
50 (≈ 118 µM)	25 (≈ 58.9 µM)	12.5 (≈ 29.4 µM)	50 (≈ 118 µM)	C=C(C)/C=C/C[C@@H](C)[C@H]1CC[C@@]2(C)C3=C(CC[C@]12C)[C@@]1(C)CC[C@H](O)C(C)(C)[C@@H]1CC3	100 (≈ 235 µM)	50 (≈ 118 µM)	100 (≈ 235 µM)	>100
50 (≈ 113 µM)	50 (≈ 113 µM)	12.5 (≈ 28.2 µM)	50 (≈ 113 µM)	C[C@H](C/C=C/C(C)(C)O)[C@H]1CC[C@@]2(C)C3=C(CC[C@]12C)[C@@]1(C)CC[C@H](O)C(C)(C)[C@@H]1CC3 (relative stereo)	>100	100 (≈ 226 µM)	100 (≈ 226 µM)	>100
25 (≈ 54.7 µM)	12.5 (≈ 27.4 µM)	6.25 (≈ 13.7 µM)	25 (≈ 54.7 µM)	COC(C)(C)/C=C/C[C@@H](C)[C@H]1CC[C@@]2(C)C3=C(CC[C@]12C)[C@@]1(C)CC[C@H](O)C(C)(C)[C@@H]1CC3 (relative stereo)	25 (≈ 54.7 µM)	25 (≈ 54.7 µM)	12.5 (≈ 27.4 µM)	25 (≈ 54.7 µM)
